Experiments:
[1] = test system: cell lines harboring a BRAF^V600E mutation (RKO, HT-29, WiDr, MDST8, LIM2405 cells); test: In-vitro 3D cell viability assay (CellTiter-Glo 3D), dilution matrix of compound 1 versus encorafenib, BLISS model; assay type: cell-based, human; details: compound 1 combined with encorafenib, 5 days post-treatment, FIG. 1A-1E
Protocol: Cells were plated at a density of 1,000 (RKO, HT-29, WiDr, MDST8) or 5,000 (LIM2405) cells per well in a 96-well plate (Corning #3903). Cells were allowed to adhere overnight, and compound was added in a matrix format using a HP Tecan D300e digital dispenser (Switzerland). Compound 1 was added in a 1:3 dilution series (8-point dose response) from bottom to top of plate (rows B-H) and encorafenib was added in a 1:3 dilution series ([…] dose response) from right to left (columns 2-11). Final DMSO concentration was normalized across the plate. Cell viability was assessed 5-days post-treatment using Promega CellTiter-Glo 3D Cell Viability Assay reagent (#G9683) according to manufacturer's protocol.
RKO cells (FIG. 1A), HT-29 cells (FIG. 1B), WiDr cells (FIG. 1C), MDST8 cells (FIG. 1D), and LIM2405 (FIG. 1E) were treated with a dilution matrix of compound 1 versus encorafenib in 3D cell viability assays. Cell viability, as expressed as a percentage of viable cells relative to vehicle treated control, is shown in the matrix.

[2] = test system: encorafenib refractory-BRAF^V600E RKO and WiDr CDX models; test: In-vivo assay, tumor growth in xenograft (CDX) models; parameters: species or system Female Balb/c nude mice; details: compound 1 combined with encorafenib, oral, FIG. 2A, 2B
Protocol: The vehicle/control article, 0.5% Methyl Cellulose & 0.1% Tween 80 or 100 mM acetic acid in deionized water with pH adjustment to 4.8-5.0, was prepared and stored under ambient conditions throughout the study period.
The test article compound 1 was freshly prepared in vehicle of 0.5% Methyl Cellulose & 0.1% Tween 80 weekly and stored under ambient conditions. The combination agent, encorafenib, was freshly prepared in vehicle of 0.5% CMC and 0.5% Tween 80 weekly and stored at 2-8° C.
Female Balb/c nude mice were purchased from the Beijing Vital River Laboratory Animal Technology Co., Ltd. Mice were hosted at special pathogen-free (SPF) environment of vivarium facility and acclimated to their new environment for at least 3 days prior to initiation of any experiments. Mice were between 6-8 weeks of age at the time of implantation.
RKO is a human CRC tumor cell line that harbors a BRAF^V600E mutation. The RKO cell line was purchased from the American Type Culture Collection (ATCC® CRL-2577™). RKO cells were cultured in medium containing EMEM plus 10% Fetal Bovine Serum (FBS) supplemented with non-essential amino acids at 37° C. in an atmosphere of 5% CO2 in air. RKO cells in 200 μL cell suspensions containing 2×10^6 cells mixed with 50% Matrigel were implanted into mice subcutaneously. […]

[3] = test system: RAS/MAPK pathway (P-RSK, P-ERK) in BRAF V600E mutant CRC cell lines RKO and HT-29; test: Western blot of phosphorylation of RSK (P-RSK) and ERK (P-ERK), encorafenib in combination with MEK and ERK inhibitors; assay type: cell-based, human; details: plus BRAF inhibitor encorafenib; incubation up to 72 hours; Compound 1 at one-tenth the concentration used for the MEK and other ERK inhibitors; FIG. 3A-3D
Source text: Treatment of two BRAF V600E mutant CRC cell lines, RKO and HT-29, with encorafenib in combination with the MEK inhibitor binimetinib, the ERK inhibitor Compound 1, the ERK inhibitor LY3214996, and the ERK inhibitor ravoxertinib. The Western blot gels depict phosphorylation of RSK (P-RSK) and ERK (P-ERK). Higher levels of phosphorylation are depicted by higher (i.e., darker) band intensity. Total GAPDH protein (GAPDH) serves as a loading control. ERK signaling activity is represented by the phosphorylation state of RSK (P-RSK), which is a downstream target of ERK. The column values indicate the duration of compound incubation of up to 72 hours. FIG. 3A-FIG. 3D.

| Structure (SMILES) | combination benefit in vitro (cell viability, BLISS model) [1] | combination benefit in vivo (tumor growth curves) [2] | RAS/MAPK pathway feedback reactivation (P-RSK, P-ERK) [3] |
| --- | --- | --- | --- |
| Cc1cnc(NC2CCOCC2)nc1-n1cnc(C(=O)N[C@H](CN)c2cc(F)cc(Cl)c2)c1 [Compound 1, (S)-N-(2-amino-1-(3-chloro-5-fluorophenyl)ethyl)-1-(5-methyl-2-((tetrahydro-2H-pyran-4-yl)amino)pyrimidin-4-yl)-1H-imidazole-4-carboxamide] | combination benefit | combination benefit | blocked the RAS/MAPK pathway feedback reactivation |
| COC(=O)N[C@@H](C)CNc1nccc(-c2cn(C(C)C)nc2-c2cc(Cl)cc(NS(C)(=O)=O)c2F)n1 [encorafenib, Encorafenib, reference compound] | combination benefit | combination benefit | – |
